In patent US20250340911A1, “METHOD FOR PRODUCING FROM FATTY ALCOHOLS MONOMERS FOR PRODUCING VARIOUS SYNTHETIC RESINS” (priority 2022, published 2025):

Test system: recombinant Candida tropicalis Ct6 strain
Experiment: Cytotoxicity of synthesized (biomass-derived) dialkyl ethers to recombinant strain, growth by absorbance at 600 nm
Format: cell-based
Details: 0-5% ether in YPD medium, 48-well plate, 24 hours or more, ether synthesized in Example 1
Experimental: The cytotoxicity of the dioctyl ether synthesized as described above was analyzed. 200 μl of a mixed solution of YPD medium (10 g/L yeast extract, 20 g/L Bacto peptone, 20 g/L glucose) and each concentration (0, 0.25, 0.5, 1, 2, 3, 4, or 5%) of dioctyl ether was added to each well of a 48-well plate. After 2 μl of a culture of a recombinant Candida tropicalis Ct6 strain cultured overnight in YPD medium at 30° C. and 200 rpm was further added to each well, the absorbance at 600 nm was measured using a plate reader at 30° C. for 24 hours or more at 15-minute intervals. The maximum specific growth rate (μm) and lag time were calculated using the Gompertz growth equation.
The cytotoxicity of the didodecyl ether synthesized as described above was analyzed. 200 μl of a mixed solution of YPD medium and each concentration (0, 0.25, 0.5, 1, 2, 3, 4, or 5%) of didodecyl ether was added to each well of a 48-well plate. After 2 μl of a culture of a recombinant Candida tropicalis Ct6 strain cultured overnight in YPD medium at 30° C. and 200 rpm was further added to each well, the absorbance at 600 nm was measured using a plate reader at 33° C. for 24 hours or more at 15-minute intervals. The maximum specific growth rate and lag time were calculated using the Gompertz growth equation.

| Structure (SMILES) | cytotoxicity (maximum specific growth rate and lag time, Gompertz growth equation) |
| --- | --- |
| CCCCCCCCOCCCCCCCC [Dioctyl ether, dioctyl ether] | almost no cytotoxicity |
| CCCCCCCCCCCCOCCCCCCCCCCCC [Didodecyl ether, didodecyl ether] | almost no cytotoxicity |
